{"source": "patent US4312883A", "about": "“Furocoumarin for the photochemotherapy of psoriasis and related skin diseases” (Consiglio Nazionale delle Ricerche, priority 1979, dated 1982)", "key": {"[1]": {"conditions": "Table I; cited from earlier work"}, "DNA [2]": {"system": "DNA", "assay": "Capacity to form inter-strand cross-linkages in DNA", "type": "biochemical", "conditions": "(psr = 100)", "experimental": "All these compounds were not suitable to photoinduce in DNA inter-strand cross-linkages. […] These tests were carried out according to the method of F. Bordin et al., Photochem. Photobiol., 29,1063 (1979)."}, "[3]": {"system": "normal human and guinea pig skin", "conditions": "in vivo; cited from earlier work"}, "skin": {"system": "skin", "assay": "Relative skin phototoxicity", "conditions": "(psr = 100)"}, "epidermal DNA synthesis [4]": {"system": "epidermal DNA synthesis", "assay": "Inhibition of epidermal DNA synthesis in the mouse in vivo after topical application and UV-A irradiation", "conditions": "light or radiation study, 0.01% methanol solutions, UV-A 9 J/cm^2, read-out: Percent inhibition ± standard error of epidermal DNA synthesis", "experimental": "DNA samples were dissolved in water and their specific radioactivity determined.\nEach drug substance was studied using at least six mice."}, "epidermal DNA synthesis [5]": {"system": "epidermal DNA synthesis", "assay": "Inhibition of the synthesis of epidermal DNA of the mouse in vivo after oral administration and UV-A irradiation", "conditions": "oral 0.25 g/Kg, UV-A 9 J/cm^2 after two hours", "from_the_text": "Considering that the topical skin tests carried out on mice to evaluate the effectiveness of these substances has yielded data which correlate well with the clinical data, such a test conveniently modified has been adopted to evaluate the effectiveness of the alkylangelicins after oral administration followed by UV-A irradiation.\nIn this connection experiments have been conducted using mice 20±2 g in weight, that were starved for three hours before oral administration of the alkylangelicins. Groups of 5 mice were fed a suspension of 0.5% methylcellulose in water containing the alkylangelicins of the invention at a dosage of 0.25 g/Kg. The animals were kept in the dark for two hours, that is for the time necessary for absorption, systemic distribution and localization of the drug at the level of the skin. The animals were then irradiated with UV-A light, 9 J/cm^2. Later the animals were sacrificed and the inhibition of the epidermal DNA synthesis was tested; the results obtained are reported in Table VI. The skin on the back, protected from light by a dark paper, was assumed as a control. As a reference 8-MOP, used under the same experimental conditions, was also tested. The significant activity of the alkylangelicins according to the present invention, higher than that of 8-MOP, in inhibiting the epidermal DNA synthesis in mice upon oral administration allows one to consider these compounds as also being effective for oral administration to humans for photochemotherapy of psoriasis and of other skin diseases that are characterized by cellular hyperproliferation."}, "melamin pigmentation": {"system": "melamin pigmentation", "conditions": "Table I; cited from earlier work"}, "DNA [6]": {"system": "DNA", "assay": "Dark complex formation (intercalation) with DNA in the ground state, binding parameters", "design": "K (association constants) of the complexes with DNA: unit not given here", "from_the_text": "Dark complex formation: It is known from F. Dall'Acqua, et al. Chem.-Biol. Interactions 21,103 (1978) that the intercalated complex formed by furocoumarins with DNA strongly affects the successive photoaddition increasing the rate of photobinding. […] These parameters have been determined according to the method of McChee and Von Hippel, J.Mol.Biol, 86, 469 (1974).\n(a) Determined according to Mc Ghee and Von Hippel, J. Mol. Biol.,"}, "DNA [7]": {"system": "DNA", "assay": "Photobinding to DNA, rate constants of the photoreactions", "type": "biochemical", "from_the_text": "(b) Determined according to F. Dall'Acqua, S. Marciani, F. Zambon and G.\nRodighiero, Photochem. Photobiol., 29,489(1979).\nPhotobinding capacity to DNA: The introduction of one or two methyl groups in the molecule of angelicin leads to a strong increase of the photobinding to DNA; see Table II. […] Photobiol., 29, 489 (1979)."}, "DNA synthesis": {"system": "DNA synthesis", "conditions": "Table I; cited from earlier work"}, "psoriasis": {"system": "psoriasis", "assay": "Topical photochemotherapy of psoriasis in patients", "type": "in vivo, human", "conditions": "topical 0.1% w/v + UV-A", "from_the_text": "Clinical data: The effectiveness of certain representative alkylangelicins according to the present invention, specifically 5-methylangelicin, 4,5'-dimethylangelicin, 4'-hydroxymethyl-4,5'-dimethylangelicin, 4'-hydroxymethyl-4,5'-dimethylangelicin and 4,5-dimethylangelicin, has been tested by measuring their capacity to resolve psoriasis in various patients. For a direct comparison the efficacy of the parent unsubstituted angelicin and that of three very effective linear furocoumarins, that is 8-methoxypsoralen (8-MOP), 5-methoxypsoralen (5-MOP), and 4,5',8-trimethylpsoralen (TMP) were also tested.\nIn each treatment four areas of the affected skin were used;\n(a) In the first area an alcohol lotion, containing 10% glycerine, of the tested compound (0.1% w/v) was applied until a concentration of […] was reached then left to evaporate by the heat of the body. After half an hour the area was irradiated with high intensity UV-A emitting low pressure mercury fluorescent lamps with a wavelength of 320-400 nm. The irradiation doses were selected in the range of 4.5-13 J/cm^2 for each application as a function of the sensitivity of the skin of the patients; when the skin sensitivity was higher, the light doses were lower and vice versa.\n(b) A second area was treated with an alcohol solution of the drug as in (a) but it was covered and maintained in the dark.\n(c) A third area, where the drug was not applied, was irradiated as in (a) but in general with higher UV-A doses.\n(d) A fourth area was not treated at all, neither with the drug, not with UV-A.\nThe treatment with the alkylangenlicins referred to above was repeated 5 time a week for two or more weeks; the total number of treatments was between 8 and 20 per subject. In some cases, as for instance with 5-methylangelicin, a good clearing of psoriasis was observed after 8 treatments.\nIn order to avoid induction of photosensitization processes such as redness and erythema in the reference tests made with the linear furocoumarins 8-MOP, 5-MOP, TMP, lower light doses were used than in the case of alkylangelicins, the treatments were repeated at a frequency of no more than three times a week."}, "E. coli WP2 trp^- uvrA^-": {"system": "E. coli WP2 trp^- uvrA^-", "conditions": "cited from earlier work"}, "E. coli wild type strain": {"system": "E. coli wild type strain", "conditions": "E. coli wild type strains; cited from earlier work"}, "[8]": {"conditions": "known furocoumarins, Table I; cited from earlier work"}, "DNA [9]": {"system": "DNA", "conditions": "cited from earlier work; for Photobinding capacity to DNA: known furocoumarins"}}, "note": "“Also recorded” adds a separate entry of the source. Read-outs that look alike come from different tables or passages of the source."}
{"smiles": "O=c1ccc2ccc3occc3c2o1", "note": "[angelicin, reference compound]", "values": [{"measurement": "Mutagenicity", "setting": "[1]", "value": "weak"}, {"measurement": "capacity to form interstrand cross-linkages", "setting": "DNA [2]", "value": 0}, {"measurement": "erythema or hyperpigmentation on the skin", "setting": "[3]", "value": "does not provoke either erythema or hyperpigmentation on the skin"}, {"measurement": "Relative skin phototoxicity", "setting": "skin", "value": 0}, {"measurement": "inhibition in vivo at 0.01 %", "setting": "epidermal DNA synthesis [4]", "value": "17.5 ± 2.5", "unit": "%"}, {"measurement": "Percent inhibition ± standard error of epidermal DNA synthesis", "setting": "epidermal DNA synthesis [5]", "value": "28 ± 2", "unit": "%"}, {"measurement": "Stimulation of melamin pigmentation", "setting": "melamin pigmentation", "value": "absent"}, {"measurement": "K (association constants) of the complexes with DNA", "setting": "DNA [6]; in vitro, ground state, McGhee and Von Hippel method", "value": 560}, {"measurement": "1/n (frequency of binding sites)", "setting": "DNA [6]; in vitro, ground state, molecules bound per nucleotide", "value": 0.063}, {"measurement": "1/n (frequency of binding sites), relative", "setting": "DNA [6]; relative (ang = 100)", "value": 100}, {"measurement": "K (association constants), relative", "setting": "DNA [6]; relative (ang = 100)", "value": 100}, {"measurement": "Rate constants of the photoreactions with DNA", "setting": "DNA [7]; in vitro, UV-A irradiated", "value": 1.1, "unit": "K × 10^-2 × min^-1"}, {"measurement": "Rate constants of the photoreactions with DNA, relative", "setting": "DNA [7]; relative (ang = 100)", "value": 100}, {"measurement": "DNA synthesis inhibiting property", "setting": "DNA synthesis", "value": "weak"}, {"measurement": "No. of patients with Excellent result", "setting": "psoriasis; Excellent = 90% clearance", "value": 0, "unit": "patients"}, {"measurement": "No. of patients with Fair result", "setting": "psoriasis; Fair = 50-70%", "value": 0, "unit": "patients"}, {"measurement": "No. of patients with Good result", "setting": "psoriasis; Good = 70-90%", "value": 0, "unit": "patients"}, {"measurement": "No. of patients with Poor result", "setting": "psoriasis; Poor 40%", "value": 8, "unit": "patients"}, {"measurement": "mutagenic activity, strains deficient in known repair functions", "setting": "E. coli WP2 trp^- uvrA^-", "value": "Only very low mutagenic activity"}, {"measurement": "mutagenic activity / mutation frequency, wild type", "setting": "E. coli wild type strain", "value": "not detectable"}, {"measurement": "Photosensitizing activity", "setting": "[8]", "value": "absent"}, {"measurement": "DNA intercalation property", "setting": "DNA [9]; Table I", "value": "evident"}, {"measurement": "Interstrand cross-linking induction in DNA", "setting": "DNA [9]; Table I", "value": "absent"}, {"measurement": "Monoadduct forming property", "setting": "DNA [9]; Table I", "value": "weak"}, {"measurement": "Photobinding capacity to DNA", "setting": "DNA [9]", "value": "low capacity of photobinding to DNA; also recorded: low photobinding capacity towards DNA"}, {"measurement": "Photobinding capacity to DNA", "setting": "DNA [9]; listed as Angelicin", "value": "weak"}]}
